Literature values as cited in patent US7157490B2, “Phenylalanine derivatives as dipeptidyl peptidase inhibitors for the treatment or prevention of diabetes” (Merck & Co., Inc., priority 2002, dated 2007).
Each block holds one compound with its values, some of them ahead of it.

Experiments:
[1] = tested on: rats; conditions: doubled from day 7
[2] = tested on: mouse model of cyclophosphamide-induced neutropenia
[3] = target: T1, DP-IV (Homo sapiens, UniProt P27487)
T1 construct: GRF is rapidly degraded in plasma to GRF[3–44]; from tissue
T1 sequence (P27487 39-766 limits assumed): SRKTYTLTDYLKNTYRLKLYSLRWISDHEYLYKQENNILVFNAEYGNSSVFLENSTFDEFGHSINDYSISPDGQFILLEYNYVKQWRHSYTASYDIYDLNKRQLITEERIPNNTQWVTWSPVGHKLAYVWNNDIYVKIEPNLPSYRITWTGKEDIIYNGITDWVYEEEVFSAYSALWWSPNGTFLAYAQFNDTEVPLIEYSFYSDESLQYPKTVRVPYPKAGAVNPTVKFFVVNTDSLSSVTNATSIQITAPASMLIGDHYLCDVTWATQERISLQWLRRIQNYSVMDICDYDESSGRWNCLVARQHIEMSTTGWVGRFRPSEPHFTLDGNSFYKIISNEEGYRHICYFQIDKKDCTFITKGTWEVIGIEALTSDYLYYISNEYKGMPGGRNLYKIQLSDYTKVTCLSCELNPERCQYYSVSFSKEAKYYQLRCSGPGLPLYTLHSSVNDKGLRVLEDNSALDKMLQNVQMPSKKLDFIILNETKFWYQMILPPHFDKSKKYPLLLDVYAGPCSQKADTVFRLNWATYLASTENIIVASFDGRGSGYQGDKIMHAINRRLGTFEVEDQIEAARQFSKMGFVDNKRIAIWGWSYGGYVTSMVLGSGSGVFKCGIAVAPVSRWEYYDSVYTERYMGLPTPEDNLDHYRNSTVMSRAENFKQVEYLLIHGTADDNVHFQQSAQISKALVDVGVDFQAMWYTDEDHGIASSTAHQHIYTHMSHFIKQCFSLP

Compound: CC(C)N1CCC(c2ccccc2)(c2ccccc2)CC1 [Prodipine, Pro-Pro-diphenyl-phosphonate]
cardiac allograft survival [1]: 14 day

Compound: CC(C)[C@H](N)C(=O)N1CCC[C@H]1B(O)O [Val-Boro-Pro]
hematopoiesis [2]: stimulated hematopoiesis

degradation of GRF in plasma to GRF[3–44] [3]: prevented
Compound: diprotin A
